Columns and labels:
Format in all cases: in vivo
[1] = tested on: barnyardgrass (Echinochloa crus-galli); assay: Test A preemergence soil spray, visual injury rating 0-100; settings: 10 days
Method in brief: (§1)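 Seeds sown in loam-sand blend got a preemergence directed soil spray, or emerged plants (2-10 cm, one- to two-leaf) got a postemergence spray, of compound in non-phytotoxic solvent with surfactant. After 10 days in greenhouse, injury rated visually versus untreated controls on a 0 (no effect) to 100 (complete control) scale.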

[2] = tested on: blackgrass (Alopecurus myosuroides); assay: as above; settings: 10 days
Method in brief: as §1

[3] = tested on: corn (Zea mays); assay: as above; settings: 10 days
Method in brief: as §1

[4] = tested on: green foxtail (Setaria viridis); assay: as above; settings: 10 days
Method in brief: as §1

[5] = tested on: kochia (Bassia scoparia); assay: as above; settings: 10 days
Method in brief: as §1

[6] = tested on: oat, wild (wild oat, Avena fatua); assay: as above; settings: 10 days
Method in brief: as §1

[7] = tested on: palmer (palmer amaranth, palmer pigweed, Amaranthus palmeri); assay: as above; settings: 10 days
Method in brief: as §1

[8] = tested on: ragweed (common ragweed, Ambrosia artemisiifolia); assay: as above; settings: 10 days
Method in brief: as §1

[9] = tested on: ryegrass, Italian (italian ryegrass, Lolium multiflorum); assay: as above; settings: 10 days
Method in brief: as §1

[10] = tested on: soybean (Glycine max); assay: as above; settings: 10 days
Method in brief: as §1

[11] = tested on: wheat (Triticum aestivum); assay: as above; settings: 10 days
Method in brief: as §1

[12] = tested on: barnyardgrass (Echinochloa crus-galli); assay: Test A postemergence application, visual injury rating 0-100
Method in brief: as §1

[13] = tested on: blackgrass (Alopecurus myosuroides); assay: as above
Method in brief: as §1

[14] = tested on: corn (Zea mays); assay: as above
Method in brief: as §1

[15] = tested on: galium (catchweed bedstraw, Galium aparine); assay: as above
Method in brief: as §1

[16] = tested on: green foxtail (Setaria viridis); assay: as above
Method in brief: as §1

[17] = tested on: horseweed (Erigeron canadensis); assay: as above
Method in brief: as §1

[18] = tested on: kochia (Bassia scoparia); assay: as above
Method in brief: as §1

[19] = tested on: oat, wild (wild oat, Avena fatua); assay: as above
Method in brief: as §1

[20] = tested on: palmer (palmer amaranth, palmer pigweed, Amaranthus palmeri); assay: as above
Method in brief: as §1

[21] = tested on: ragweed (common ragweed, Ambrosia artemisiifolia); assay: as above
Method in brief: as §1

[22] = tested on: ryegrass, Italian (italian ryegrass, Lolium multiflorum); assay: as above
Method in brief: as §1

[23] = tested on: soybean (Glycine max); assay: as above
Method in brief: as §1

[24] = tested on: wheat (Triticum aestivum); assay: as above
Method in brief: as §1

[25] = tested on: barnyardgrass (Echinochloa crusgalli); assay: Test B flooded paddy test, visual plant response rating 0-100; settings: 250 g ai/ha, Flood, applied to paddy water, evaluated after 13 days
Method in brief: (§2)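 Visual evaluation after 13 days. Water-applied treatment, 3 cm flood depth held constant, plants at 2-leaf stage at treatment.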

[26] = tested on: ducksalad (Heteranthera limosa); assay: as above; settings: 250 g ai/ha, Flood, applied to paddy water, evaluated after 13 days
Method in brief: as §2

[27] = tested on: rice (Oryza sativa); assay: as above; settings: 250 g ai/ha, Flood, applied to paddy water, evaluated after 13 days
Method in brief: as §2

[28] = tested on: sedge, umbrella (small-flower umbrella sedge, Cyperus difformis); assay: as above; settings: 250 g ai/ha, Flood, applied to paddy water, evaluated after 13 days
Method in brief: as §2

[29] = 62 g ai/ha, 0 = no effect, 100 = complete control
[30] = 62 g ai/ha, postemergence, 10 days, 0 = no effect, 100 = complete control
[31] = Postemergence, 16 g ai/ha, greenhouse 10 days, 0 no effect, 100 complete control

With `CC(C)OC(=O)C1=CCC(NC(=O)C2(C)CN(c3cc(F)cc(F)c3)C(=O)O2)C1` (stereo not shown) [Compound 100] the “Barnyardgrass plant response rating” value ([1]; 16 g ai/ha, 0 to 100 scale) was 30, the “Barnyardgrass plant response rating (0-100)” value [1, 29] was 100 and the “Blackgrass plant response rating” value ([2]; 16 g ai/ha, 0 to 100 scale) was 0. The “Blackgrass plant response rating (0-100)” value [2, 29] was 60, the “Corn plant response rating” value ([3]; 16 g ai/ha, 0 to 100 scale) was 30 and the “Corn plant response rating (0-100)” value [3, 29] was 30. For the same compound, the “Foxtail, Green plant response rating” value ([4]; 16 g ai/ha, 0 to 100 scale) was 80, the “Foxtail, Green plant response rating (0-100)” value [4, 29] was 100 and the “Kochia plant response rating” value ([5]; 16 g ai/ha, 0 to 100 scale) was 0. The “Kochia plant response rating (0-100)” value [5, 29] was 100, the “Oat, Wild plant response rating” value ([6]; 16 g ai/ha, 0 to 100 scale) was 0 and the “Oat, Wild plant response rating (0-100)” value [6, 29] was 0. The “Pigweed, Palmer plant response rating” value ([7]; 16 g ai/ha, 0 to 100 scale) was 90, the “Pigweed, Palmer plant response rating (0-100)” value [7, 29] was 100 and the “Ragweed plant response rating” value ([8]; 16 g ai/ha, 0 to 100 scale) was 0. For the same compound, the “Ragweed plant response rating (0-100)” value [8, 29] was 0, the “Ryegrass, Italian plant response rating” value ([9]; 16 g ai/ha, 0 to 100 scale) was 60 and the “Ryegrass, Italian plant response rating (0-100)” value [9, 29] was 80. The “Soybean plant response rating” value ([10]; 16 g ai/ha, 0 to 100 scale) was 0, the “Soybean plant response rating (0-100)” value [10, 29] was 40 and the “Wheat plant response rating” value ([11]; 16 g ai/ha, 0 to 100 scale) was 50. The “Wheat plant response rating (0-100)” value [11, 29] was 90, the “Barnyardgrass plant response rating (0-100)” value [12, 30] was 100 and the “Barnyardgrass plant response rating (0 to 100 scale)” value [12, 31] was 50. For the same compound, the “Blackgrass plant response rating (0-100)” value [13, 30] was 90, the “Blackgrass plant response rating (0 to 100 scale)” value [13, 31] was 60 and the “Corn plant response rating (0-100)” value [14, 30] was 100. For the same compound, the “Corn plant response rating (0 to 100 scale)” value [14, 31] was 100, the “Galium plant response rating (0-100)” value [15, 30] was 90 and the “Galium plant response rating (0 to 100 scale)” value [15, 31] was 70. For the same compound, the “Foxtail, Green plant response rating (0-100)” value [16, 30] was 90, the “Foxtail, Green plant response rating (0 to 100 scale)” value [16, 31] was 80 and the “Horseweed plant response rating (0-100)” value [17, 30] was 40. The “Horseweed plant response rating (0 to 100 scale)” value [17, 31] was 0, the “Kochia plant response rating (0-100)” value [18, 30] was 90 and the “Kochia plant response rating (0 to 100 scale)” value [18, 31] was 80. The “Oat, Wild plant response rating (0-100)” value [19, 30] was 100, the “Oat, Wild plant response rating (0 to 100 scale)” value [19, 31] was 70 and the “Pigweed, Palmer plant response rating (0-100)” value [20, 30] was 80. For the same compound, the “Pigweed, Palmer plant response rating (0 to 100 scale)” value [20, 31] was 20, the “Ragweed plant response rating (0-100)” value [21, 30] was 40 and the “Ragweed plant response rating (0 to 100 scale)” value [21, 31] was 0. The “Ryegrass, Italian plant response rating (0-100)” value [22, 30] was 90, the “Ryegrass, Italian plant response rating (0 to 100 scale)” value [22, 31] was 70 and the “Soybean plant response rating (0-100)” value [23, 30] was 70. For the same compound, the “Soybean plant response rating (0 to 100 scale)” value [23, 31] was 60, the “Wheat plant response rating (0-100)” value [24, 30] was 80 and the “Wheat plant response rating (0 to 100 scale)” value [24, 31] was 70. The “Plant response rating, Barnyardgrass (0 to 100 scale, 0 is no effect and 100 is complete control)” value [25] was 70, the “Plant response rating, Ducksalad (0 to 100 scale, 0 is no effect and 100 is complete control)” value [26] was 75 and the “Plant response rating, Rice (0 to 100 scale, 0 is no effect and 100 is complete control)” value [27] was 70. The “Plant response rating, Sedge, Umbrella (0 to 100 scale, 0 is no effect and 100 is complete control)” value [28] was 95.

Source: patent publication US20260285850A1, “SUBSTITUTED OXAZOLIDINONES AND IMIDAZOLINONES AS HERBICIDES” (FMC CORPORATION, priority 2023, published 2026)
